These results are taken from patent US20250281497A1, “FUSED AMINO PYRIMIDINE COMPOUNDS FOR TREATMENT OF SEIZURE DISORDERS” (Ovid Therapeutics Inc., priority 2024, published 2025).

The subject of experiment [1] is hippocampal neurons. Briefly: Whole cell patch clamp with imposed Cl− load, hippocampal neurons. The experiment is classed as cell-based, Sprague Dawley. As to conditions: 1 h incubation, 32 mM Cl− load; controls −47.4±2.3. As for the experimental part:
Neuronal Cultures. Hippocampal neurons were prepared from Sprague Dawley E18 embryos and plated at 450,000 per dish and maintained at 37° C. in a humidified 5% CO2 incubator for 10-25 days before experimentation (Lee et al., Nat. Neurosci. 14, 736-743 (2011)).
Neuronal Patch clamp assays. Neuronal cell culture recordings were performed in bath saline at 34° C. For gramicidin perforated-patch experiments, pipettes contained (in mM): 140 KCl and 10 HEPES, pH 7.4 KOH. For whole-cell experiments, pipettes contained (in mM): 115 K-meth-SO^4, 30 KCl, 2 Mg-ATP, 4 Na-ATP, 0.4 Na-GTP, and 10 HEPES, pH 7.4 KOH. Bath saline contained the following (in mM): 140 NaCl, 2.5 KCl, 2.5 CaCl2, 2.5 MgCl2, 10 HEPES, and 11 glucose, pH 7.4 NaOH (Kontou et at, 2021, supra). All compound solutions were applied to cells using a three-barreled 700 μm pipe positioned just above the cell (Warner Instruments). […] All voltages from whole-cell experiments were corrected offline using a calculated liquid junction potential value (13.6 mV) in Clampex (Molecular Devices). For gramicidin perforated-patch experiments, intracellular Cl^− values were back-calculated using measured EGABA values and the Nernst equation: […]
5 min after break-in, an initial EGABA value was determined and the effects of a subsequent 5 min incubation with VU0463271 was assessed.
Background: In patch-clamp work, channel activity is measured electrically.

Experiment [2] deals with T1, NKCC1 (Homo sapiens, UniProt P55011).
T1 construct: expressed in transfected cells; host or cells: HEK-293
T1 sequence (P55011 1-1212): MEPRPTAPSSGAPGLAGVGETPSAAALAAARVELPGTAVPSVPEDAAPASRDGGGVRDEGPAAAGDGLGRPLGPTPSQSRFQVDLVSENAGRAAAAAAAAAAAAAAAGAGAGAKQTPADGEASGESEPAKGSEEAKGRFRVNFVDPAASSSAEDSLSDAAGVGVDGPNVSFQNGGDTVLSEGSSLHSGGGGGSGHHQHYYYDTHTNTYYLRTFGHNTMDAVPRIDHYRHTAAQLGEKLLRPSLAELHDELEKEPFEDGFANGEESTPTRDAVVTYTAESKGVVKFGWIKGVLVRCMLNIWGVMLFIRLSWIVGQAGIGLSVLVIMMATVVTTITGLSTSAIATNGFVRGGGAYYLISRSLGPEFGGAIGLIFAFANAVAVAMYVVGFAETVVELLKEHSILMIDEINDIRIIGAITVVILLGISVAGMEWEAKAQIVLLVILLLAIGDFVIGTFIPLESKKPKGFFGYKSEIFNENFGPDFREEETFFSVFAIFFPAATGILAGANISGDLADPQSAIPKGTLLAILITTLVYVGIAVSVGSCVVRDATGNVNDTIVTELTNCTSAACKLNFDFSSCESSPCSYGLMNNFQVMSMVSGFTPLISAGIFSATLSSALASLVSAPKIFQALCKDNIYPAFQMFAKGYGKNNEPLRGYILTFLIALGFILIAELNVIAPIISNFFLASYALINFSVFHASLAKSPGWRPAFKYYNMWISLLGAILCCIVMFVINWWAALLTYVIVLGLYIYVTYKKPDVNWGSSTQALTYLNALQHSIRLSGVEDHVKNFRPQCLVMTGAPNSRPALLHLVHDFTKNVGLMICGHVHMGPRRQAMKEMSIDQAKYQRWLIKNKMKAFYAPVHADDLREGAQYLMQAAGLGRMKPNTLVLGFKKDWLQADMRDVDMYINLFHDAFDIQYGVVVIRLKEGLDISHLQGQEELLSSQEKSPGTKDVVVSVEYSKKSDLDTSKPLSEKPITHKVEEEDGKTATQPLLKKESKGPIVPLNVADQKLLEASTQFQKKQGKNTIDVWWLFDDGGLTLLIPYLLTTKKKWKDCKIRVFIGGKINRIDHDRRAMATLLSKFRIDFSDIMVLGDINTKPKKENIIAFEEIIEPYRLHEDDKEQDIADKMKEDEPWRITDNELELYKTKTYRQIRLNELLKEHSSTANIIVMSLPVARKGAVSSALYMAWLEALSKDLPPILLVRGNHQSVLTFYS
The experiment in a line: Tl+ assay, HEK-293 cells expressing NKCC1. Type of experiment: cell-based. As to conditions: read-out: concentration at which effects on NKCC1 were seen (EC50 chart FIG. 1G). As for the experimental part:
FLIPR TI Flux assay. HEK-293 cells were washed with HBSS, and then incubated with loading buffer containing TI sensitive fluorescent dye (https://www.moleculardevices.com), 20 μM bumetanide 20 μM ouabain and 2.5 mM probenecid for 1 h at room temperature (RT) under control conditions or with drugs in the dark using a FlexStation 3 microplate reader (Molecular Devices) and imaged […] for 30 min. Stimulus buffer was added containing 5 mM K^+/0.5 mM Tl^+ and cells were imaged every 1.5 over a 190 second time course The initial rate Tl^+ uptake (Relative Fluorescence Units (RFU) per second) was determined following addition of the stimulus buffer as outlined previously (Conway et at, 2017, supra) (Lee et at, 2022, supra).
Several studies have shown that the activity and plasma membrane accumulation of KCC2 is potentiated via phosphorylation of S940, a process mediated by the activity of protein kinase C and protein phosphatase 1 (Lee et al., 2011, supra; Lee et al., J Biol Chem 282, 29777-29784 (2007); Moore et al., Proc. Natl. Acad. Sci. U.S.A. 115, 10166-10171 (2018); Moore et al., Trends Neurosci. 40, 555-571 (2017); Silayeva et al., Proc. Natl. Acad. Sci. U.S.A. 112, 3523-3528 (2015)). […] Compared to KCC2, effects on KCC3, KCC4, and NKCC1 were only seen at concentrations more than 35-fold that of KCC2 (>100 μM) (FIG. 1G).

Take `C[C@@H]1CN(c2nc3c(c(Nc4ccc(C5CCCCC5)cc4)n2)COC3)CCO1` [Compound A, (R)—N-(4-cyclohexylphenyl)-2-(2-methylmorpholino)-5,7-dihydrofuro[3,4-d]pyrimidin-4-amine]: the “basal EGABA” value in experiment [1] is −59.3±2.1 mV. Moreover, the EC50 in experiment [2] was greater than 100 µM.
